Reference: US8415469B2, “Compounds and methods for kinase modulation, and indications therefor” (Plexxikon Inc., priority 2005, dated 2013)

Assays:
Type in all cases: biochemical
[1] = molecular target: T1, B-Raf V600E (Homo sapiens, UniProt P15056, V600E); assay: AlphaScreen kinase assay, B-Raf V600E; conditions: read-out: IC50, activity toward kinase B-Raf V600E
T1 construct: P4254. pFastBacBD-CDC37 BRAF D437-K722-X, V600E; His6 with pFastBac HT leader (TEV site) (N); made in house; host or cells: Sf9 (baculovirus; chaperone CDC37 co-expressed)
T1 sequence (P15056 with tags, fused parts or gaps V600E): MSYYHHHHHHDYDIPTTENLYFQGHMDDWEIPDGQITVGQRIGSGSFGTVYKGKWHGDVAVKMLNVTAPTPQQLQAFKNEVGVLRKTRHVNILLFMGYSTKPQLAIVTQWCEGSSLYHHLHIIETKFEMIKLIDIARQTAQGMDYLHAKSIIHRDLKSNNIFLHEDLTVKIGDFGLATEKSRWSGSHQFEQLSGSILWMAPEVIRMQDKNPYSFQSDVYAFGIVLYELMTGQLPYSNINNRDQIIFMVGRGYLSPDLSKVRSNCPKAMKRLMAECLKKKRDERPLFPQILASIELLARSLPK

[2] = molecular target: T2, Btk (Homo sapiens, UniProt Q06187); assay: Z'-Lyte FRET kinase assay (Invitrogen), Btk; conditions: read-out: IC50, activity toward kinase Btk
T2 construct: purchased Invitrogen (assay run by Invitrogen)
T2 sequence (Q06187 whole entry): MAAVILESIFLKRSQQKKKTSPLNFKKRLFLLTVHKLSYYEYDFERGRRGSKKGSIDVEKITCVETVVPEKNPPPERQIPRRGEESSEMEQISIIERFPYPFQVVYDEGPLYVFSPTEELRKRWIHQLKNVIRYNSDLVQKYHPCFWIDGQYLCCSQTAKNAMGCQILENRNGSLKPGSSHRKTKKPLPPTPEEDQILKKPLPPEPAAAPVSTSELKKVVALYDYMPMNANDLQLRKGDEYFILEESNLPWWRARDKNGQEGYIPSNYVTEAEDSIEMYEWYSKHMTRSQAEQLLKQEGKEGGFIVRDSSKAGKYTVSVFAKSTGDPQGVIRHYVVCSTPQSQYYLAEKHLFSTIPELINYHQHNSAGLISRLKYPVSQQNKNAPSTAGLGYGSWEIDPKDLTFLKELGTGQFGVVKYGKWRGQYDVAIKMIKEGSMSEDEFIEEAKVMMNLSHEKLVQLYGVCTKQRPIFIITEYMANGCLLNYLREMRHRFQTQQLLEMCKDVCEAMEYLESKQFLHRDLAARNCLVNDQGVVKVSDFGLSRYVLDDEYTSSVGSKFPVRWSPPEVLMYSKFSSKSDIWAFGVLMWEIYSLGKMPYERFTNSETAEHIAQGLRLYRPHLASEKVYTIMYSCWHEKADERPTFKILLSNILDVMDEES

[3] = molecular target: T3, Ret (Homo sapiens, UniProt P07949); assay: AlphaScreen kinase assay, Ret; conditions: read-out: IC50, activity toward kinase Ret
T3 construct: P1378.pET-SF BI-PTP RET H661-R1012 HIS; made in house
T3 sequence (P07949 with tags, fused parts or gaps): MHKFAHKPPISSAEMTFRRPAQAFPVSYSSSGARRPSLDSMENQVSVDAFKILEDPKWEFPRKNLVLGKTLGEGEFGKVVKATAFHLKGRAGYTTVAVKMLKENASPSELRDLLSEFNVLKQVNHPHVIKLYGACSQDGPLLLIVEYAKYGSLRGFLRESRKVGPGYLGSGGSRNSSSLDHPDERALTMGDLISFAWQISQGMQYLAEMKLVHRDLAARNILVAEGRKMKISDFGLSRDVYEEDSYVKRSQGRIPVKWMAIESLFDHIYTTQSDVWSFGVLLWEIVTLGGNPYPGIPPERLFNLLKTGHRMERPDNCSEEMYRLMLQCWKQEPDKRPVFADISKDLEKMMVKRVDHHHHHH

[4] = molecular target: T4, Stk6 (Homo sapiens, UniProt O14965); assay: Z'-Lyte FRET kinase assay (Invitrogen), Stk6; conditions: read-out: IC50, activity toward kinase Stk6
T4 construct: purchased Invitrogen (Carlsbad, Calif.), screening service
T4 sequence (O14965 1-403): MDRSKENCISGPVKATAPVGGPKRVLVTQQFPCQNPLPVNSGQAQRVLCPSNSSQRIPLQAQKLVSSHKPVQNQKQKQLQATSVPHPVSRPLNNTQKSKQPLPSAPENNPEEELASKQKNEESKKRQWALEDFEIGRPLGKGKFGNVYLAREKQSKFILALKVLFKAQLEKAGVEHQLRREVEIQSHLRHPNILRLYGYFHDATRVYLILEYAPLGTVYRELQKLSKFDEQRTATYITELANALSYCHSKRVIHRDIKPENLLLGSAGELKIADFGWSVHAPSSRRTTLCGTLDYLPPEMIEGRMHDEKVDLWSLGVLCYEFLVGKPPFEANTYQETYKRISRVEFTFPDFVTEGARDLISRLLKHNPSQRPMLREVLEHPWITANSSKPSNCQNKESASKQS
Source text: (§2) For example, direct radiometric, indirect FRET or AlphaScreen assays may be used to assess the level of phosphorylation of a substrate in the presence of test compounds in order to determine the inhibitory affect of the compound on the kinase. […] For these assays, compounds of the invention were screened by Invitrogen using Z′-Lyte™ kinase assay.
(§3) Briefly, the Invitrogen kinase assay involves use of a specific peptide substrate optimized for each kinase, containing a fluorophore at each end that make up the FRET pair. The peptide sensitivity to proteolytic cleavage depends on phosphorylation of the peptide. Non-phosphorylated peptide is cleaved by a protease while peptide phosphorylated by the kinase is not cleaved. Cleavage of the peptide disrupts the FRET between the donor (coumarin) and acceptor (fluorescein) fluorophores, resulting in an increase in the ratio of donor emission to acceptor emission. The emission ratio of coumarin to fluorescein is used to assess the reaction progress. […] Thus, the assay involves a kinase reaction in the presence of varying concentrations of a given compound, a development reaction with site specific protease, and detection of the fluorescent emission ratio of coumarin and fluorscein. […] Reaction conditions for each kinase are determined to provide optimal reaction times, incubation temperature, kinase and ATP concentrations. Test samples are made up in 1× kinase buffer (50 mM HEPES pH 7.5, 50 mM MgCl2, 5 mM EGTA, 0.05% BRIJ-35) and compound at desired concentration prepared in DMSO such that the final DMSO is 1%. […] All kinase except for MAP2K1 were at 10 μM ATP in the kinase reaction, while MAP2K1 was at 100 μM. Samples are mixed and the kinase reaction is incubated 1 hour at room temperature, after which 5 μl of development solution is added and mixed. After incubation for another 1 hour at room temperature, 5 μl of stop reagent is added to each sample and mixed. The fluorescence signals are measured to determine the emission ratio.

[5] = molecular target: Gsk3β (Homo sapiens, UniProt P49841); assay: AlphaScreen kinase assay, Gsk3β; conditions: read-out: IC50, activity toward kinase Gsk3β
How it was run: (§1)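 Eight concentrations per compound (1:3 serial dilution of 20 mM DMSO stock) were tested. Read-out: AlphaScreen signal from phospho-antibody acceptor and streptavidin donor beads bound to biotinylated peptide substrate, reduced on kinase inhibition.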

[6] = molecular target: Plk1 (Homo sapiens, UniProt P53350); assay: AlphaScreen kinase assay, Plk1; conditions: read-out: IC50, activity toward kinase Plk1
Plk1, sequence (P53350 whole entry): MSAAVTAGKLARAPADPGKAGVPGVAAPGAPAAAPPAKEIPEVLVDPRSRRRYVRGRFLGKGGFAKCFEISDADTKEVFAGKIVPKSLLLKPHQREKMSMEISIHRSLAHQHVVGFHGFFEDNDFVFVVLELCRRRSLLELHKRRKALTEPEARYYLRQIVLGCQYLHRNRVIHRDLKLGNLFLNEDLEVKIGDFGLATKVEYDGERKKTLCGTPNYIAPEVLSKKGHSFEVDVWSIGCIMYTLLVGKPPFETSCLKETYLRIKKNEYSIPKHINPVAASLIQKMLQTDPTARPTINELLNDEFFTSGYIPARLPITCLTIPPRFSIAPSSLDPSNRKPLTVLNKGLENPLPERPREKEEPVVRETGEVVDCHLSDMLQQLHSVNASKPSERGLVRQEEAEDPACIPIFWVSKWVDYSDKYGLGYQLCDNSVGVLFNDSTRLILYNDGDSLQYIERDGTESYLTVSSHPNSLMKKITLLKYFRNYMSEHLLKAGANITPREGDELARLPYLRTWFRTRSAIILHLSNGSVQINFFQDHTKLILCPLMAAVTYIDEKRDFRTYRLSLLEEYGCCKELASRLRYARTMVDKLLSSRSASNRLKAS
Source text: AlphaScreen assay was used to screen additional kinases. The assay is similarly dependent on the phosphorylation of a peptide substrate. In this assay, an antibody that recognizes phosphorylated substrate is bound to an acceptor bead. The peptide substrate is attached to biotin, which binds to a donor head that contains streptavidin. Thus phosphorylated substrate is bound by antibody and streptavidin, bringing the donor and acceptor heads into close proximity when kinase is not inhibited. The donor produces singlet oxygen which results in emission from the acceptor when they are in close proximity. Conversely, when kinase is inhibited, the donor and acceptor beads are not associated and the emission from the acceptor is reduced.
AlphaScreen assays were done using compounds dissolved in DMSO to a concentration of 20 mM. The compounds were diluted accordingly to the desired final concentrations in each sample well, using 1:3 serial dilution for a total of 8 concentration points.

[7] = molecular target: T5, Fak (Homo sapiens, UniProt Q05397); assay: AlphaScreen kinase assay, Fak; conditions: read-out: IC50, activity toward kinase Fak
T5 construct: P1358.pFastBacHtb FAK S411-Q686-X; His6 with pFastBacHTb leader (TEV site) (N); made in house; host or cells: Sf9 (baculovirus)
T5 sequence (Q05397 411-686): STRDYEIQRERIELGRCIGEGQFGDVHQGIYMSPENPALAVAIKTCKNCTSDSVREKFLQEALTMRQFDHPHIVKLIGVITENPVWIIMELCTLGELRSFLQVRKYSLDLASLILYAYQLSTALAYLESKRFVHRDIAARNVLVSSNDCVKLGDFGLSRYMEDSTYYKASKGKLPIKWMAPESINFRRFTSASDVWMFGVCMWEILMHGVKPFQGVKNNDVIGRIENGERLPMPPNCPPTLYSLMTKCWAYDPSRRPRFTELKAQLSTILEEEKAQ

[8] = molecular target: T6, Flt1 (Homo sapiens, UniProt P17948); assay: AlphaScreen kinase assay, Flt1; conditions: read-out: IC50, activity toward kinase Flt1
T6 construct: P1826.pETN6 BI-PTP FLT1 M799-D1165-X WT; His6 (N); made in house; host or cells: E. coli (PTP1B co-expressed)
T6 sequence (P17948 with tags, fused parts or gaps): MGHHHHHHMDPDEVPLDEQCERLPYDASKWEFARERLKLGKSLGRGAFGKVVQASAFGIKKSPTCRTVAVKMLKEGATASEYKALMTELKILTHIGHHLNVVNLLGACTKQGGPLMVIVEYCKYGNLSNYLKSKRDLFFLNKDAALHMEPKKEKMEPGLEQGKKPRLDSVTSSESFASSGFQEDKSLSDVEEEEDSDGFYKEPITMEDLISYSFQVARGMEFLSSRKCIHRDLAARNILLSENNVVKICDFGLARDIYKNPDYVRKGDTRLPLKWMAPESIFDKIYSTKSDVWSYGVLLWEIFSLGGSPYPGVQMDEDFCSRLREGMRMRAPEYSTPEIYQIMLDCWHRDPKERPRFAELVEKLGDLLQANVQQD

[9] = molecular target: T7, Kdr (Homo sapiens, UniProt P35968); assay: Z'-Lyte FRET kinase assay (Invitrogen), Kdr; conditions: read-out: IC50, activity toward kinase Kdr
T7 construct: purchased Invitrogen (assay run by Invitrogen)
T7 sequence (P35968 20-1356): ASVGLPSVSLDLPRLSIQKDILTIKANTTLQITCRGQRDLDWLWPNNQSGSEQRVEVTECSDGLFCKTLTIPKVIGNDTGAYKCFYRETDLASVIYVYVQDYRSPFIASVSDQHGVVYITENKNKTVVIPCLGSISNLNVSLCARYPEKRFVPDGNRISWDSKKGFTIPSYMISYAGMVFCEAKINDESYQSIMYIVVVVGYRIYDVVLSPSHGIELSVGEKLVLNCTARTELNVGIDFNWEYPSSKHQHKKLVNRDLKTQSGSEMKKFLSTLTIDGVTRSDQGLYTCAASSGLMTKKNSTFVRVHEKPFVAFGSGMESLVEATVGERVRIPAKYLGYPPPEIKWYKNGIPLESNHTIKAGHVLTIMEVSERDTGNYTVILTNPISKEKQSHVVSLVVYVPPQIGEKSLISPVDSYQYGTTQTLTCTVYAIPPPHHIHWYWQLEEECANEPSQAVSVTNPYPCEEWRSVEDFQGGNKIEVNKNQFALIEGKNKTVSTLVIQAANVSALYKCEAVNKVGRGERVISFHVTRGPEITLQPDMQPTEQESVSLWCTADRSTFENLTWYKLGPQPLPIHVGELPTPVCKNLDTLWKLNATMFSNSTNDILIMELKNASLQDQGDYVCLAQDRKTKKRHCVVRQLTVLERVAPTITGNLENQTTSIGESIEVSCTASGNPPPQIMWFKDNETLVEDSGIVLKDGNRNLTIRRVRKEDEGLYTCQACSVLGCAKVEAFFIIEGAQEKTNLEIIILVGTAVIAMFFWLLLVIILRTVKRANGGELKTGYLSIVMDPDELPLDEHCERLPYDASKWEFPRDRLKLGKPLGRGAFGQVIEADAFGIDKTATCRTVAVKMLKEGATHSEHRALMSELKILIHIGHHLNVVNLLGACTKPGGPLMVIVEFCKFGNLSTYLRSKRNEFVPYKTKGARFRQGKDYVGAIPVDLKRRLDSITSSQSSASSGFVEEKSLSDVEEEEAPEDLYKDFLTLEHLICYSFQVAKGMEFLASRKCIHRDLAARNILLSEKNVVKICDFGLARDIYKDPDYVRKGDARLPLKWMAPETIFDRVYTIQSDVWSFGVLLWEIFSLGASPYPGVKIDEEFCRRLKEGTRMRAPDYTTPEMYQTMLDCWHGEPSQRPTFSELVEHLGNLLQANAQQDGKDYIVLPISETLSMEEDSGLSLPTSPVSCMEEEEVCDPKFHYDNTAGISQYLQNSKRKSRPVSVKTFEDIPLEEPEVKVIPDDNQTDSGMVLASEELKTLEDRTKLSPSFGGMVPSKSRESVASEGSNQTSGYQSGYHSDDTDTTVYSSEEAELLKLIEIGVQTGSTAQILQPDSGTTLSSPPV

[10] = molecular target: T8, Kit (Homo sapiens, UniProt P10721); assay: AlphaScreen kinase assay, Kit; conditions: read-out: IC50, activity toward kinase Kit
T8 construct: P1332.N6 BI PTP KIT M552-K948-X COD; His6 (N); made in house; host or cells: E. coli (PTP1B co-expressed)

[11] = molecular target: T9, MAP2K1 (Homo sapiens, UniProt Q02750); assay: Z'-Lyte FRET kinase assay (Invitrogen), MAP2K1; conditions: read-out: IC50, activity toward kinase MAP2K1
T9 construct: purchased Invitrogen (assay run by Invitrogen)
T9 sequence (Q02750 whole entry): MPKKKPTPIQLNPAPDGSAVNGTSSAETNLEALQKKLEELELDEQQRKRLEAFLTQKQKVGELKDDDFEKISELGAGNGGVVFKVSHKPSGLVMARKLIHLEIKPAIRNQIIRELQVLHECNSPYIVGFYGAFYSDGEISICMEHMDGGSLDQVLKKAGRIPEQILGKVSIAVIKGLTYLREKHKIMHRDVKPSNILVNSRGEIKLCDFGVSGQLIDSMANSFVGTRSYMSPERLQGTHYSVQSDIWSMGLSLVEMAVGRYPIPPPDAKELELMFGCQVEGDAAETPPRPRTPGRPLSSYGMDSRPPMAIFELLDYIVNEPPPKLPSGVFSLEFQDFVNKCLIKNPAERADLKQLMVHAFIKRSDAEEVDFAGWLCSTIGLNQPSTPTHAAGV
Source text: as §2, §3

[12] = molecular target: T10, Pyk2 (Homo sapiens, UniProt Q14289); assay: AlphaScreen kinase assay, Pyk2; conditions: read-out: IC50, activity toward kinase Pyk2
T10 construct: purchased Upstate Biotechnology

[13] = molecular target: T11, FGFR1 (Homo sapiens, UniProt P11362, C488A/C584S); assay: AlphaScreen kinase assay, FGFR1; conditions: read-out: IC50, activity toward kinase FGFR
T11 construct: P1351.pET N6 BI-PTP FGFR A458-E765-X C488A, C584S; made in house; host or cells: E. coli (PTP1B co-expressed)
T11 sequence (P11362 458-765 C488A/C584S): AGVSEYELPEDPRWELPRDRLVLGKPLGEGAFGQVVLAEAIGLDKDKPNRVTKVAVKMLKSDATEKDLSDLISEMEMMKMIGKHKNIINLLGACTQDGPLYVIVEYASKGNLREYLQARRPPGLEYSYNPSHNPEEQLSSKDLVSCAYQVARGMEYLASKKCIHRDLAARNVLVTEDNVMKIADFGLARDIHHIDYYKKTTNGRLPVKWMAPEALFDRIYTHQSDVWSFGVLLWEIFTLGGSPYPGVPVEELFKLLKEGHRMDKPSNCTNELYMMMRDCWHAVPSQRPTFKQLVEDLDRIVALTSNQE

[14] = molecular target: Akt3 (Homo sapiens, UniProt Q9Y243); assay: AlphaScreen kinase assay, Akt3; conditions: read-out: IC50, activity toward kinase Akt3
Akt3, sequence (Q9Y243 whole entry): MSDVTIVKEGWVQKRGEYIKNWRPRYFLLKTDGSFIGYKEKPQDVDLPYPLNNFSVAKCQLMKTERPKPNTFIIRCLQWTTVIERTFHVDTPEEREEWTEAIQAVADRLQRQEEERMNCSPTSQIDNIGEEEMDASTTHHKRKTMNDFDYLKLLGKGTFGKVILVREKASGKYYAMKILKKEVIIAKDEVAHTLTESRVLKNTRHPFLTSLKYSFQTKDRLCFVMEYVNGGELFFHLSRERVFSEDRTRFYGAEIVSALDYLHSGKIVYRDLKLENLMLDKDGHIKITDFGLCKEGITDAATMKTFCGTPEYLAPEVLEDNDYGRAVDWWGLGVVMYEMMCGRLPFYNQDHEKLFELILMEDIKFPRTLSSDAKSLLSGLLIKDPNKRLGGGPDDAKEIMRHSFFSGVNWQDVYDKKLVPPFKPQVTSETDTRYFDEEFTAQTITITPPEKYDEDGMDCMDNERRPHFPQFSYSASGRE
How it was run: as §1

[15] = molecular target: T12, EphB2 (Homo sapiens, UniProt P29323); assay: Z'-Lyte FRET kinase assay (Invitrogen), EphB2; conditions: read-out: IC50, activity toward kinase EphB2
T12 construct: purchased Invitrogen (assay run by Invitrogen)
T12 sequence (P29323 19-1055): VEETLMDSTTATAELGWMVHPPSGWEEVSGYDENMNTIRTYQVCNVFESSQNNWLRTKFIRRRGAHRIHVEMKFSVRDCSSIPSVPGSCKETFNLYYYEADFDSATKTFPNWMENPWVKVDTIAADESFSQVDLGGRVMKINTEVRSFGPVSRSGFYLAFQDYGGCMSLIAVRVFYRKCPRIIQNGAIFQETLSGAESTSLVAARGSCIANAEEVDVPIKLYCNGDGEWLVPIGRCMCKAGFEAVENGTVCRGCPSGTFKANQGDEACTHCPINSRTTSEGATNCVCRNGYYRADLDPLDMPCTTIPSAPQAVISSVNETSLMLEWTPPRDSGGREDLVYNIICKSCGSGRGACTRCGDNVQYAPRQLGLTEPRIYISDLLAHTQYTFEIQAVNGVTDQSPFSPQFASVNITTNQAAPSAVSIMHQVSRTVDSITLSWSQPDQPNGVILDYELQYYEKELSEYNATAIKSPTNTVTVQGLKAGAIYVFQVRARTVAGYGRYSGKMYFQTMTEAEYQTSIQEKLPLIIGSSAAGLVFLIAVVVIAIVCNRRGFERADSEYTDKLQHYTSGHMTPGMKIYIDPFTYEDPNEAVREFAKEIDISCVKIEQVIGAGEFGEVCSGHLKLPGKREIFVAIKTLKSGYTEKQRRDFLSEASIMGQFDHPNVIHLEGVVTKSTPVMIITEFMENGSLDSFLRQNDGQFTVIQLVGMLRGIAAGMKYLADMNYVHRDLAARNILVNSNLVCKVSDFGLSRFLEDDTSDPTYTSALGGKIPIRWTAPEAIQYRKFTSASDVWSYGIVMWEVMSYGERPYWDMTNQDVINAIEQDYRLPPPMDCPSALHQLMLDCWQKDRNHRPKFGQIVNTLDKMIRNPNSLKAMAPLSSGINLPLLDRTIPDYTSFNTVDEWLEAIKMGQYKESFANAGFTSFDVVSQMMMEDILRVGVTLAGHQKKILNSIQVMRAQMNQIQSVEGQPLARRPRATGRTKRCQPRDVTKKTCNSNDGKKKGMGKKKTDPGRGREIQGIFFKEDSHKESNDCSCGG
Source text: The effect of potential modulators of kinase activity can be measured in a variety of different assays known in the art. For example, direct radiometric, indirect FRET or AlphaScreen assays may be used to assess the level of phosphorylation of a substrate in the presence of test compounds in order to determine the inhibitory affect of the compound on the kinase. Invitrogen (Carlsbad, Calif.) uses a FRET based assay for Btk, EGFR, EphB2, Flt3, lrak4, Kdr, MAP2K1, MAPKAPK2, PDGFRB, PKC theta, Stk6 and Yes. For these assays, compounds of the invention were screened by Invitrogen using Z′-Lyte™ kinase assay.
Briefly, the Invitrogen kinase assay involves use of a specific peptide substrate optimized for each kinase, containing a fluorophore at each end that make up the FRET pair. The peptide sensitivity to proteolytic cleavage depends on phosphorylation of the peptide. Non-phosphorylated peptide is cleaved by a protease while peptide phosphorylated by the kinase is not cleaved. Cleavage of the peptide disrupts the FRET between the donor (coumarin) and acceptor (fluorescein) fluorophores, resulting in an increase in the ratio of donor emission to acceptor emission. The emission ratio of coumarin to fluorescein is used to assess the reaction progress. The extent of phosphorylation is determined from the emission ratio, which is low when the kinase is active (phosphorylated peptide is not cleaved, FRET pair connected) or higher for inhibited kinase (non-phosphorylated peptide is cleaved, FRET pair separated). Thus, the assay involves a kinase reaction in the presence of varying concentrations of a given compound, a development reaction with site specific protease, and detection of the fluorescent emission ratio of coumarin and fluorscein. […] Reaction conditions for each kinase are determined to provide optimal reaction times, incubation temperature, kinase and ATP concentrations. Test samples are made up in 1× kinase buffer (50 mM HEPES pH 7.5, 50 mM MgCl2, 5 mM EGTA, 0.05% BRIJ-35) and compound at desired concentration prepared in DMSO such that the final DMSO is 1%. […] Typically, assay plates are prepared to 10 μl final volume per sample, adding 2.5 μl of compound at 4× the desired concentration in 4% DMSO (serial dilution of compound provides concentration curve), 5 μl of the desired kinase mixed with Z′-LYTE™ peptide substrate (2× in 2× kinase buffer, final peptide at 2 μM), and 2.5 μl of 4×ATP solution. All kinase except for MAP2K1 were at 10 μM ATP in the kinase reaction, while MAP2K1 was at 100 μM. Samples are mixed and the kinase reaction is incubated 1 hour at room temperature, after which 5 μl of development solution is added and mixed. After incubation for another 1 hour at room temperature, 5 μl of stop reagent is added to each sample and mixed. The fluorescence signals are measured to determine the emission ratio.

[16] = molecular target: T13, Yes (Homo sapiens, UniProt P07947); assay: Z'-Lyte FRET kinase assay (Invitrogen), Yes; conditions: read-out: IC50, activity toward kinase Yes
T13 construct: purchased Invitrogen (Carlsbad, Calif.), screening service
T13 sequence (P07947 whole entry): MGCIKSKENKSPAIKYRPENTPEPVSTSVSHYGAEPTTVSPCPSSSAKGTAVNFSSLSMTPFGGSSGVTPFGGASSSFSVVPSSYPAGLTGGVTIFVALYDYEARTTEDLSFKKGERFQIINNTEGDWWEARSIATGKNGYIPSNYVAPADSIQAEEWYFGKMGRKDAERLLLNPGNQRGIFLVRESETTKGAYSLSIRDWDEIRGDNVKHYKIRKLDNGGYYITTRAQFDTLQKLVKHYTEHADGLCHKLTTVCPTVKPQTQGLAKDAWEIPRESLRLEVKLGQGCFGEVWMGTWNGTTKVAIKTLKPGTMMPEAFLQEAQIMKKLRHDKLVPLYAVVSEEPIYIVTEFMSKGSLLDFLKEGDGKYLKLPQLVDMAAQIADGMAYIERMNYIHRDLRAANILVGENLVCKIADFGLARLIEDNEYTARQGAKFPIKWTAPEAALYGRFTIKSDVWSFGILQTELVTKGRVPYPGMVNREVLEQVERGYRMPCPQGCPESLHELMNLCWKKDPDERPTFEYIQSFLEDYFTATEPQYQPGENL
How it was run: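 Serially diluted compound (final 1% DMSO) incubated 1 h at room temperature with kinase, 2 μM FRET peptide and 10 μM ATP in pH 7.5 HEPES buffer. Site-specific protease then cleaves unphosphorylated peptide (1 h); inhibition read as increased coumarin-to-fluorescein emission ratio.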

Measured: IC50

Nc1cccc(-c2ccnc3[nH]cc(C(=O)c4ccc(Cl)cc4)c23)c1 [Compound P-0148]
≤ 10 µM: [1] | [2] | [3] | [4] | [5] | [6]

Cc1occc1Sc1c[nH]c2ncccc12 [Compound P-0018]
≤ 10 µM: [7] | [8] | [9] | [10] | [11] | [12] | [4] | [6]

COc1cccc(C(=O)c2c[nH]c3nccc(-c4cccc(N)c4)c23)c1 [Compound P-0099]
≤ 10 µM: [1] | [13] | [11] | [3] | [4] | [14] | [6]

Nc1cccc(-c2ccnc3[nH]cc(C(=O)c4cccc(Cl)c4Cl)c23)c1 [Compound P-0075]
≤ 10 µM: [1] | [2] | [15] | [9] | [3] | [16] | [6]

Cc1ccccc1C(=O)c1c[nH]c2nccc(-c3cccnc3)c12 [Compound P-0083]
≤ 10 µM: [2] | [15] | [3] | [16] | [6]
